In patent US20230085307A1, “PYRIDAZINONE COMPOUND AND HERBICIDE” (NISSAN CHEMICAL CORPORATION, priority 2019, published 2023):

Columns and labels:
velvetleaf [1] = assay: Test Example 5: herbicidal effect by foliage application, plastic box (Table 20, symbol M); format: in vivo, velvetleaf (Abutilon theophrasti); conditions: foliage application, 320 g/ha, three weeks after application
In short: (§1)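 Plants sown in sterilized diluvial soil and grown 14 days in a greenhouse at 25° C to 30° C, then sprayed on the foliage with the compound's emulsion diluted in water to a predetermined herbicide amount. Injury to weeds and crops scored three weeks after application on a visual rating scale.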

chickweed [2] = assay: Test Example 4: herbicidal effect by soil treatment (Table 19, symbol P); format: in vivo, common chickweed (Stellaria media); conditions: amount of applied herbicide 320 g/ha
In short: (§2)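 Three weeks of greenhouse growth at 25° C. to 30° C. followed a uniform surface spray of water-diluted emulsion at a predetermined herbicide amount. Seeds had been sown beforehand under about 1.5 cm of sterilized diluvial soil. Grading followed criteria set out in an earlier test.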

blackgrass [3] = assay: Test Example 4: herbicidal effect by soil treatment (Table 19, symbol J); format: in vivo, blackgrass (Alopecurus myosuroides); conditions: amount of applied herbicide 320 g/ha
In short: as §2

Japanese bulrush = assay: Test Example 1: herbicidal activity, application before weed generation under submerged conditions (Table 16, symbol B); format: in vivo, Japanese bulrush (Schoenoplectus juncoides); conditions: 320 g/ha applied herbicide
In short: (§3)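 Submerged Wagner pots (alluvial soil, 4 cm water) sown with weed seeds and planted with 2.5-leaf rice seedlings; emulsifiable concentrate diluted in water applied to water surface on sowing day. Held in greenhouse at 25-30 °C; injury scored 0-5 by herbicidal rate after three weeks.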

persian speedwell [4] = assay: Test Example 4: herbicidal effect by soil treatment (Table 19, symbol R); format: in vivo, Persian speedwell (Veronica persica); conditions: amount of applied herbicide 320 g/ha
In short: as §2

Italian ryegrass [5] = assay: Test Example 5: herbicidal effect by foliage application, plastic box (Table 20, symbol K); format: in vivo, Italian ryegrass (Lolium multiflorum); conditions: foliage application, 320 g/ha, three weeks after application
In short: as §1

late watergrass = assay: Test Example 1: herbicidal activity, application before weed generation under submerged conditions (Table 16, symbol A); format: in vivo, late watergrass (Echinochloa oryzicola); conditions: 320 g/ha applied herbicide
In short: as §3

wild oat [6] = assay: Test Example 5: herbicidal effect by foliage application, plastic box (Table 20, symbol I); format: in vivo, wild oat (Avena fatua); conditions: foliage application, 320 g/ha, three weeks after application
In short: as §1

southern crabgrass [7] = assay: Test Example 5: herbicidal effect by foliage application, plastic box (Table 20, symbol F); format: in vivo, southern crabgrass (Digitaria ciliaris); conditions: foliage application, 320 g/ha, three weeks after application
In short: as §1

southern crabgrass [8] = assay: Test Example 4: herbicidal effect by soil treatment (Table 19, symbol F); format: in vivo, southern crabgrass (Digitaria ciliaris); conditions: amount of applied herbicide 320 g/ha
In short: as §2

lambsquarters [9] = assay: Test Example 5: herbicidal effect by foliage application, plastic box (Table 20, symbol O); format: in vivo, lambsquarters (Chenopodium album); conditions: foliage application, 320 g/ha, three weeks after application
In short: as §1

chickweed [10] = assay: Test Example 5: herbicidal effect by foliage application, plastic box (Table 20, symbol P); format: in vivo, common chickweed (Stellaria media); conditions: foliage application, 320 g/ha, three weeks after application
In short: as §1

Chinese sprangletop = assay: Test Example 3: herbicidal effect by foliage application, Wagner pot (Table 18, symbol D); format: in vivo, chinese sprangletop (Leptochloa chinensis); conditions: 320 g/ha
In short: (§4)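 Plants were sown in alluvial soil held under 0.1–0.5 cm standing water and grown 14 days in a greenhouse at 25–30 °C. An emulsifiable formulation, water-diluted to the set dose, was then sprayed onto the foliage, and effects were scored three weeks later using previously defined criteria.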

barnyard grass [11] = assay: Test Example 4: herbicidal effect by soil treatment (Table 19, symbol H); format: in vivo, barnyard grass (Echinochloa crus-galli); conditions: amount of applied herbicide 320 g/ha
In short: as §2

green foxtail [12] = assay: Test Example 5: herbicidal effect by foliage application, plastic box (Table 20, symbol G); format: in vivo, green foxtail (Setaria viridis); conditions: foliage application, 320 g/ha, three weeks after application
In short: as §1

rice flat sedge = assay: Test Example 3: herbicidal effect by foliage application, Wagner pot (Table 18, symbol E); format: in vivo, rice flat sedge (Cyperus iria); conditions: 320 g/ha
In short: as §4

windgrass [13] = assay: Test Example 5: herbicidal effect by foliage application, plastic box (Table 20, symbol L); format: in vivo, windgrass (Apera spica-venti); conditions: foliage application, 320 g/ha, three weeks after application
In short: as §1

blackgrass [14] = assay: Test Example 5: herbicidal effect by foliage application, plastic box (Table 20, symbol J); format: in vivo, blackgrass (Alopecurus myosuroides); conditions: foliage application, 320 g/ha, three weeks after application
In short: as §1

barnyard grass [15] = assay: Test Example 5: herbicidal effect by foliage application, plastic box (Table 20, symbol H); format: in vivo, barnyard grass (Echinochloa crus-galli); conditions: foliage application, 320 g/ha, three weeks after application
In short: as §1

oval-leafed pondweed = assay: Test Example 1: herbicidal activity, application before weed generation under submerged conditions (Table 16, symbol C); format: in vivo, oval-leafed pondweed (Monochoria vaginalis); conditions: 320 g/ha applied herbicide
In short: as §3

green foxtail [16] = assay: Test Example 4: herbicidal effect by soil treatment (Table 19, symbol G); format: in vivo, green foxtail (Setaria viridis); conditions: amount of applied herbicide 320 g/ha
In short: as §2

wild oat [17] = assay: Test Example 4: herbicidal effect by soil treatment (Table 19, symbol I); format: in vivo, wild oat (Avena fatua); conditions: amount of applied herbicide 320 g/ha
In short: as §2

Italian ryegrass [18] = assay: Test Example 4: herbicidal effect by soil treatment (Table 19, symbol K); format: in vivo, Italian ryegrass (Lolium multiflorum); conditions: amount of applied herbicide 320 g/ha
In short: as §2

redroot pigweed [19] = assay: Test Example 4: herbicidal effect by soil treatment (Table 19, symbol N); format: in vivo, redroot pigweed (Amaranthus retroflexus); conditions: amount of applied herbicide 320 g/ha
In short: as §2

velvetleaf [20] = assay: Test Example 4: herbicidal effect by soil treatment (Table 19, symbol M); format: in vivo, velvetleaf (Abutilon theophrasti); conditions: amount of applied herbicide 320 g/ha
In short: as §2

windgrass [21] = assay: Test Example 4: herbicidal effect by soil treatment (Table 19, symbol L); format: in vivo, windgrass (Apera spica-venti); conditions: amount of applied herbicide 320 g/ha
In short: as §2

redroot pigweed [22] = assay: Test Example 5: herbicidal effect by foliage application, plastic box (Table 20, symbol N); format: in vivo, redroot pigweed (Amaranthus retroflexus); conditions: foliage application, 320 g/ha, three weeks after application
In short: as §1

persian speedwell [23] = assay: Test Example 5: herbicidal effect by foliage application, plastic box (Table 20, symbol R); format: in vivo, Persian speedwell (Veronica persica); conditions: foliage application, 320 g/ha, three weeks after application
In short: as §1

lambsquarters [24] = assay: Test Example 4: herbicidal effect by soil treatment (Table 19, symbol O); format: in vivo, lambsquarters (Chenopodium album); conditions: amount of applied herbicide 320 g/ha
In short: as §2

barnyard grass [25] = assay: Test Example 3: herbicidal effect by foliage application, Wagner pot (Table 18, symbol H); format: in vivo, barnyard grass (Echinochloa crus-galli); conditions: 320 g/ha
In short: as §4

Compound | herbicidal effect grade, M: velvetleaf (velvetleaf [1]) | herbicidal effect rating, P: chickweed (chickweed [2]) | herbicidal effect rating, J: blackgrass (blackgrass [3]) | Herbicidal effect on B: Japanese bulrush (grade 0-5) (Japanese bulrush) | herbicidal effect rating, R: persian speedwell (persian speedwell [4]) | herbicidal effect grade, K: Italian ryegrass (Italian ryegrass [5]) | Herbicidal effect on A: late watergrass (grade 0-5) (late watergrass) | herbicidal effect grade, I: wild oat (wild oat [6]) | herbicidal effect grade, F: southern crabgrass (southern crabgrass [7]) | herbicidal effect rating, F: southern crabgrass (southern crabgrass [8]) | herbicidal effect grade, O: lambsquarters (lambsquarters [9]) | herbicidal effect grade, P: chickweed (chickweed [10]) | herbicidal effect on D (Chinese sprangletop), rating 0-5 (Chinese sprangletop) | herbicidal effect rating, H: barnyard grass (barnyard grass [11]) | herbicidal effect grade, G: green foxtail (green foxtail [12]) | herbicidal effect on E (rice flat sedge), rating 0-5 (rice flat sedge) | herbicidal effect grade, L: windgrass (windgrass [13]) | herbicidal effect grade, J: blackgrass (blackgrass [14]) | herbicidal effect grade, H: barnyard grass (barnyard grass [15]) | Herbicidal effect on C: oval-leafed pondweed (grade 0-5) (oval-leafed pondweed) | further results
CCCC(=O)Oc1c(C)nn(C)c(=O)c1-c1c(-c2ccccc2OCC)sc2ccccc12 [1-012] | 3 (Herbicidal rate of 40% or more and less than 70%) | 0 (Herbicidal rate of 5% or less (almost no effect)) | 5 (Herbicidal rate of 90% or more (almost completely withered)) | 1 (Herbicidal rate of 5% or more and less than 20%) | 0 (Herbicidal rate of 5% or less (almost no effect)) | 3 (Herbicidal rate of 40% or more and less than 70%) | 3 (Herbicidal rate of 40% or more and less than 70%) | 4 (Herbicidal rate of 70% or more and less than 90%) | 5 (Herbicidal rate of 90% or more (almost completely withered)) | 4 (Herbicidal rate of 70% or more and less than 90%) | 2 (Herbicidal rate of 20% or more and less than 40%) | 5 (Herbicidal rate of 90% or more (almost completely withered)) | 0 (Herbicidal rate of 5% or less (almost no effect)) | 5 (Herbicidal rate of 90% or more (almost completely withered)) | 5 (Herbicidal rate of 90% or more (almost completely withered)) | 5 (Herbicidal rate of 90% or more (almost completely withered)) | 4 (Herbicidal rate of 70% or more and less than 90%) | 4 (Herbicidal rate of 70% or more and less than 90%) | 5 (Herbicidal rate of 90% or more (almost completely withered)) | 3 (Herbicidal rate of 40% or more and less than 70%) | herbicidal effect rating, G: green foxtail (green foxtail [16]): 5 (Herbicidal rate of 90% or more (almost completely withered)); herbicidal effect rating, I: wild oat (wild oat [17]): 1 (Herbicidal rate of 5% or more and less than 20%); herbicidal effect rating, K: Italian ryegrass (Italian ryegrass [18]): 0 (Herbicidal rate of 5% or less (almost no effect)); herbicidal effect rating, N: redroot pigweed (redroot pigweed [19]): 0 (Herbicidal rate of 5% or less (almost no effect)); herbicidal effect rating, M: velvetleaf (velvetleaf [20]): 0 (Herbicidal rate of 5% or less (almost no effect)); herbicidal effect rating, L: windgrass (windgrass [21]): 3 (Herbicidal rate of 40% or more and less than 70%); herbicidal effect grade, N: redroot pigweed (redroot pigweed [22]): 3 (Herbicidal rate of 40% or more and less than 70%); herbicidal effect grade, R: persian speedwell (persian speedwell [23]): 5 (Herbicidal rate of 90% or more (almost completely withered)); herbicidal effect rating, O: lambsquarters (lambsquarters [24]): 0 (Herbicidal rate of 5% or less (almost no effect)); herbicidal effect on H (barnyard grass), rating 0-5 (barnyard grass [25]): 5 (Herbicidal rate of 90% or more (almost completely withered))
CCCC(=O)Oc1c(C)nn(C)c(=O)c1-c1c(-c2ccc(F)c(F)c2)sc2ccccc12 [1-047] | 5 (Herbicidal rate of 90% or more (almost completely withered)) | 5 (Herbicidal rate of 90% or more (almost completely withered)) | 0 (Herbicidal rate of 5% or less (almost no effect)) | 0 (Herbicidal rate of 5% or less (almost no effect)) | 5 (Herbicidal rate of 90% or more (almost completely withered)) | 0 (Herbicidal rate of 5% or less (almost no effect)) | 3 (Herbicidal rate of 40% or more and less than 70%) | 0 (Herbicidal rate of 5% or less (almost no effect)) | 0 (Herbicidal rate of 5% or less (almost no effect)) | 0 (Herbicidal rate of 5% or less (almost no effect)) | 3 (Herbicidal rate of 40% or more and less than 70%) | 5 (Herbicidal rate of 90% or more (almost completely withered)) | 0 (Herbicidal rate of 5% or less (almost no effect)) | 3 (Herbicidal rate of 40% or more and less than 70%) | 0 (Herbicidal rate of 5% or less (almost no effect)) | 5 (Herbicidal rate of 90% or more (almost completely withered)) | 0 (Herbicidal rate of 5% or less (almost no effect)) | 0 (Herbicidal rate of 5% or less (almost no effect)) | 0 (Herbicidal rate of 5% or less (almost no effect)) | 0 (Herbicidal rate of 5% or less (almost no effect)) | herbicidal effect rating, G: green foxtail (green foxtail [16]): 2 (Herbicidal rate of 20% or more and less than 40%); herbicidal effect rating, I: wild oat (wild oat [17]): 0 (Herbicidal rate of 5% or less (almost no effect)); herbicidal effect rating, K: Italian ryegrass (Italian ryegrass [18]): 0 (Herbicidal rate of 5% or less (almost no effect)); herbicidal effect rating, N: redroot pigweed (redroot pigweed [19]): 0 (Herbicidal rate of 5% or less (almost no effect)); herbicidal effect rating, M: velvetleaf (velvetleaf [20]): 0 (Herbicidal rate of 5% or less (almost no effect)); herbicidal effect rating, L: windgrass (windgrass [21]): 0 (Herbicidal rate of 5% or less (almost no effect)); herbicidal effect grade, N: redroot pigweed (redroot pigweed [22]): 3 (Herbicidal rate of 40% or more and less than 70%); herbicidal effect grade, R: persian speedwell (persian speedwell [23]): 3 (Herbicidal rate of 40% or more and less than 70%); herbicidal effect rating, O: lambsquarters (lambsquarters [24]): 3 (Herbicidal rate of 40% or more and less than 70%); herbicidal effect on H (barnyard grass), rating 0-5 (barnyard grass [25]): 2 (Herbicidal rate of 20% or more and less than 40%)
